Results: PubChem BioAssay AID248 (DTP/NCI, 2004)
Where “and” joins values, the source holds several entries; their conditions need not be identical. Identical values can stand only once. Toxic doses and inconclusive results are not listed.

System: L1210 leukemia ip in BDF1 mice, survival T/C
Experiment: NCI In Vivo Anticancer Drug Screen. Data for tumor model L1210 Leukemia (intraperitoneal) in B6D2F1 (BDF1) mice
Settings: endpoint: median survival time, higher = longer survival
Method in brief: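 Mice bearing the transplanted tumor received compound or vehicle. Survival of the treated group was divided by that of the vehicle-treated control group to give the ratio.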

SMILES: N=c1ccn2c(n1)OC1C(O)C(CO)OC12 (centres undefined)
- T/C (dose: 200.0 mg/kg/injection, schedule: Q01DX001 (ip), vehicle: saline): 122 % of control
- T/C (dose: 200.0 mg/kg/injection, schedule: Q01DX001 (ip), vehicle: water): 105 % of control
- T/C (dose: 200.0 mg/kg/injection, schedule: Q01DX009 (ip), vehicle: saline): 219 % of control and 222 % of control and 234 % of control
- T/C (dose: 200.0 mg/kg/injection, schedule: Q01DX009 (ip), vehicle: steriod suspending solution): 235 % of control
- T/C (dose: 200.0 mg/kg/injection, schedule: Q01DX009 (oral), vehicle: saline): 188 % of control
- T/C (dose: 200.0 mg/kg/injection, schedule: Q03HX008 (ip), vehicle: saline): 177 % of control
- T/C (dose: 200.0 mg/kg/injection, schedule: Q03HX016 (ip), vehicle: saline): 255 % of control
- T/C (dose: 200.0 mg/kg/injection, schedule: Q03HX024 (oral), vehicle: water): 116 % of control
- T/C (dose: 200.0 mg/kg/injection, schedule: Q04DX003 (ip), vehicle: saline): 177 % of control
- T/C (dose: 200.0 mg/kg/injection, schedule: Q04DX003 (ip), vehicle: water): 160 % of control
- T/C (dose: 216.0 mg/kg/injection, schedule: Q01DX009 (ip), vehicle: water): 100 % of control and 105 % of control
- T/C (dose: 300.0 mg/kg/injection, schedule: Q01DX008 (ip), vehicle: water): 202 % of control
- T/C (dose: 300.0 mg/kg/injection, schedule: Q01DX009 (ip), vehicle: saline): 221 % of control
- T/C (dose: 360.0 mg/kg/injection, schedule: Q01DX009 (ip), vehicle: water): 104 % of control and 111 % of control
- T/C (dose: 400.0 mg/kg/injection, schedule: Q01DX001 (ip), vehicle: water): 100 % of control
- T/C (dose: 400.0 mg/kg/injection, schedule: Q01DX001 (oral), vehicle: water): 120 % of control
- T/C (dose: 400.0 mg/kg/injection, schedule: Q01DX009 (ip), vehicle: saline): 223 % of control and 262 % of control and 311 % of control
- T/C (dose: 400.0 mg/kg/injection, schedule: Q01DX009 (ip), vehicle: steriod suspending solution): 315 % of control
- T/C (dose: 400.0 mg/kg/injection, schedule: Q01DX009 (oral), vehicle: saline): 205 % of control
- T/C (dose: 400.0 mg/kg/injection, schedule: Q03HX008 (ip), vehicle: saline): 188 % of control
- T/C (dose: 400.0 mg/kg/injection, schedule: Q03HX024 (ip), vehicle: saline): 88 % of control
- T/C (dose: 400.0 mg/kg/injection, schedule: Q03HX024 (ip), vehicle: water): 100 % of control
- T/C (dose: 400.0 mg/kg/injection, schedule: Q04DX003 (ip), vehicle: saline): 150 % of control
- T/C (dose: 400.0 mg/kg/injection, schedule: Q04DX003 (ip), vehicle: water): 165 % of control
- T/C (dose: 500.0 mg/kg/injection, schedule: Q01DX008 (ip), vehicle: water): 164 % of control
- T/C (dose: 500.0 mg/kg/injection, schedule: Q01DX009 (ip), vehicle: saline): 211 % of control
- T/C (dose: 600.0 mg/kg/injection, schedule: Q01DX009 (ip), vehicle: saline): 232 % of control
- T/C (dose: 700.0 mg/kg/injection, schedule: Q01DX009 (ip), vehicle: saline): 156 % of control
- T/C (dose: 800.0 mg/kg/injection, schedule: Q01DX001 (ip), vehicle: water): 120 % of control
- T/C (dose: 800.0 mg/kg/injection, schedule: Q01DX009 (ip), vehicle: saline): 94 % of control
- T/C (dose: 800.0 mg/kg/injection, schedule: Q01DX009 (oral), vehicle: saline): 122 % of control
- T/C (dose: 800.0 mg/kg/injection, schedule: Q01DX009 (oral), vehicle: water): 94 % of control
- T/C (dose: 800.0 mg/kg/injection, schedule: Q04DX003 (ip), vehicle: water): 200 % of control
- T/C (dose: 800.0 mg/kg/injection, schedule: Q04DX003 (oral), vehicle: saline): 166 % of control
- T/C (dose: 1600.0 mg/kg/injection, schedule: Q01DX001 (ip), vehicle: saline): 155 % of control
- T/C (dose: 1600.0 mg/kg/injection, schedule: Q01DX001 (ip), vehicle: water): 155 % of control
- T/C (dose: 1600.0 mg/kg/injection, schedule: Q04DX003 (ip), vehicle: water): 100 % of control
- T/C (dose: 1600.0 mg/kg/injection, schedule: Q04DX003 (oral), vehicle: saline): 244 % of control
- T/C (dose: 2000.0 mg/kg/injection, schedule: Q01DX001 (oral), vehicle: water): 150 % of control
